Assay results reported in article PMC4589238, “Acute Biphasic Effects of Ayahuasca” (PLoS ONE, 2015).
Read-outs that look alike come from different tables or passages of the source.

Key:
[1] = Plasma concentrations of ayahuasca compounds and metabolites after oral ayahuasca (LC/MS/MS); type: in vivo, human; design: AUC (mean ± sd): unit not given here; conditions: for Detection in plasma samples: any plasma sample after oral ayahuasca; for Cmax / Tmax: both sexes, human, in vivo; for Cmax: po
Description: A sample of six liters of "Hoasca" was donated by the União do Vegetal (UDV) church in Brazil for the specific purpose of use in this study. Quantification of the main compounds in the brew was done with liquid chromatography-electrospray ionization-tandem mass spectrometry (LC/MS/MS). The screening included the following compounds: DMT, DMT‐N‐oxide (DMT-NO), N‐methyltryptamine (NMT), indoleacetic acid (IAA), 5‐hydroxy‐DMT (5-OH-DMT, or bufotenin), 5‐methoxy‐DMT (5-MeO-DMT), Harmine, Harmol, Harmaline, Harmalol, THH, 7‐hydroxy‐tetrahydroharmine (THH-OH), and 2‐methyl‐tetrahydro‐beta‐carboline (2-MTHBC). The original liquid volume was then reduced to 50% using a rotary evaporator to decrease the amount of liquid intake.
Blood was collected in sterile EDTA containing tubes. Ten blood samples (3 mL each) were collected every 25 minutes, starting 25 minutes before ayahuasca ingestion and ending 200 minutes after ingestion (in a total of ten samples for each individual). Blood was collected by a professional nurse, with a catheter that remained in place during the entire time of the study. Each tube was carefully and slowly turned upside-down three times and then stored at 0°C until all ten samples were collected. Blood samples were then centrifuged at 2000 rpm for 10 min at 4°C and the resulting plasma immediately collected and frozen at -80°C. The frozen plasma samples were stored at -80°C until shipped on dry ice to USA for analysis according to [31]. Compounds included in this screening were DMT, DMT-NO, NMT, IAA, 5-OH-DMT (bufotenin), 5-MeO-DMT, Harmine, Harmol, Harmaline, Harmalol, THH, THH-OH and 2-MTHBC.
Two volunteers opted out of blood collection, and data from one volunteer was discarded due to high hemolysis in the blood samples. Therefore data were available from 16 volunteers. Maximum plasma Concentration (Cmax), Time for maximum plasma concentration (Tmax) and area under the curve (AUC) of ten identified compounds are summarized in Table 2. […] No significant differences were found between men and women for any of the identified compounds in blood. […] There were no significant correlations between time to vomit and Cmax or AUC.

healthy volunteers = experiment: Association between plasma concentration and EEG spectral changes (generalized linear models); type: in vivo, human; conditions: for Clusters between plasma concentration and EEG spectra: delta, theta and beta frequency bands
Method: Relationships between plasma concentration of identified compounds and spectral changes in the six frequency bands evaluated were calculated by fitting generalized linear models (glmfit function in MATLAB) for each compound and frequency band. This analysis was followed by the non-parametric cluster based correction with 5000 permutations.
Results were considered statistically significant when p <0.05. Effect sizes are also reported, using Partial eta squared (partial η^2) for the main frequency clusters and Cohen’s d for the generalized linear models.

[2] = plasma, 16 volunteers, oral ayahuasca, sampling to 200 min, read-out: Cmax (mean ± sd)
[3] = plasma, 16 volunteers, oral ayahuasca, read-out: Cmax (min—max)
[4] = plasma, 16 volunteers, oral ayahuasca, read-out: Tmax (mean ± sd) (converted)
[5] = plasma, 16 volunteers, oral ayahuasca
[6] = left centro-parieto-occipital electrodes
[7] = left fronto-central electrodes (F7 and FC5)
[8] = left parieto-occipital electrodes
[9] = plasma, 16 volunteers, oral ayahuasca, sampling to 200 min
[10] = one right central electrode (C6)
[11] = left fronto-temporal electrodes

Compound: CN1CCc2c([nH]c3ccccc23)C1 [2-MTHBC, 2‐methyl‐tetrahydro‐beta‐carboline]
- Detection in plasma samples [1]: never detected

Compound: Cc1[nH]ccc2c1[nH]c1cc(=O)ccc12 [Harmol]
- Cmax [1, 2]: 0.085 ± 0.0936 µg/mL
- Cmax [1, 3]: < 0.319 µg/mL
- Tmax [1, 4]: 2.47 h
- AUC (min—max) [1, 5]: 0.00 to 1550.35 g·min/mL
- Clusters between plasma concentration and EEG spectra (healthy volunteers): did not show any significant clusters
- Cohen's d, plasma concentration vs alpha band power decrease (healthy volunteers; [6]): 0.0556
- Cohen's d, plasma concentration vs alpha band (healthy volunteers; left frontal electrodes): 0.3029
- Cohen's d, plasma concentration vs slow-gamma power increase (healthy volunteers; [7]): 0.1250
- Cohen's d, plasma concentration vs slow-gamma power increase (healthy volunteers; [8]): 0.2921
- Cohen's d, plasma concentration vs fast-gamma power increase (healthy volunteers; one large widespread bilateral cluster): 0.0463
- Cohen's d, plasma concentration vs slow-gamma power increase (healthy volunteers; right frontal electrodes): 0.2747
- Cohen's d, plasma concentration vs slow-gamma power increase (healthy volunteers; right parietal electrodes): 0.0941

Compound: CC1NCCc2c1[nH]c1cc(O)ccc21 (stereo not drawn) [THH-OH, 7‐hydroxy‐tetrahydroharmine]
- AUC (min—max) [1, 5]: 0.00 to 284.32 g·min/mL
- Cmax (min—max) [1, 5]: 0 to 0.11101 µg/mL
- Tmax (mean ± sd) [1, 5]: 1.994 ± 0.8978 h
- Cmax (mean ± sd) [1, 9]: 0.02258 ± 0.02676 µg/mL
- Clusters between plasma concentration and alpha band (healthy volunteers; alpha band): No significant clusters
- Cohen's d, plasma concentration vs delta band power increase (healthy volunteers; one left frontal electrode (F7)): 0.2644
- Cohen's d, plasma concentration vs delta band power increase (healthy volunteers; [10]): 0.0269
- Cohen's d, plasma concentration vs theta band power increase (healthy volunteers; [10]): 0.2630
- Clusters between plasma concentration and slow-gamma frequency band (healthy volunteers; slow-gamma band): No significant clusters

Compound: CC1=NCCc2c1[nH]c1cc(O)ccc21 [Harmalol]
- Cmax [1, 2]: 0.0172 ± 0.0136 µg/mL
- Cmax [1, 3]: 0.00311 to 0.0485 µg/mL
- Tmax [1, 4]: 2.08 h
- AUC (min—max) [1, 5]: 9.91 to 204.99 g·min/mL
- Clusters between plasma concentration and EEG spectra (healthy volunteers): did not show any significant clusters
- Cohen's d, plasma concentration vs alpha band power decrease (healthy volunteers; left centro-parietal electrodes): 0.0673
- Cohen's d, plasma concentration vs slow-gamma power increase (healthy volunteers; [7]): 0.0707
- Cohen's d, plasma concentration vs fast-gamma power increase (healthy volunteers; [11]): 0.1479
- Cohen's d, plasma concentration vs alpha band power decrease (healthy volunteers; [8]): 0.1056
- Cohen's d, plasma concentration vs slow-gamma power increase (healthy volunteers; [8]): 0.0542
- Cohen's d, plasma concentration vs fast-gamma power increase (healthy volunteers; right frontal electrodes): 0.0785
- Cohen's d, plasma concentration vs slow-gamma power increase (healthy volunteers; right frontal electrodes): 0.001

Compound: CN(C)CCc1c[nH]c2ccccc12 [DMT, N,N-dimethyltryptamine]
- Cmax [1, 2]: 0.0254 ± 0.0168 µg/mL
- Cmax [1, 3]: 0.00249 to 0.0659 µg/mL
- Tmax ([1]; from ayahuasca ingestion, group average curve, read-out: Time of peak plasma level in the group average (converted)): 1.25 h
- Tmax [1, 4]: 2.21 h
- AUC (min—max) [1, 5]: 9.52 to 219.10 g·min/mL
- Cohen's d, plasma concentration vs fast-gamma power increase (healthy volunteers; bilateral temporo-parieto-occipital electrodes): 0.0309
- Cohen's d, plasma concentration vs alpha band power decrease (healthy volunteers; [6]): 0.0822
- Cohen's d, plasma concentration vs slow-gamma power increase (healthy volunteers; [6]): 0.0125
- Cohen's d, plasma concentration vs beta power increase (healthy volunteers; [7]): 0.1131
- Cohen's d, plasma concentration vs fast-gamma power increase (healthy volunteers; [11]): 0.0193
- Cohen's d, plasma concentration vs slow-gamma power increase (healthy volunteers; [11]): 0.0966
- Cohen's d, plasma concentration vs delta band increase (healthy volunteers; left fronto-temporal electrodes (FT9, F7 and FT7)): 0.2962
- Cohen's d, plasma concentration vs fast-gamma power increase (healthy volunteers; right frontal electrodes): 0.1366
- Cohen's d, plasma concentration vs slow-gamma power increase (healthy volunteers; right frontal electrodes): 0.0161
- Cohen's d, plasma concentration vs delta band increase (healthy volunteers; right frontal electrodes (AF4 and F2)): 0.2100

Compound: C[N+](C)([O-])CCc1c[nH]c2ccccc12 [DMT-NO, DMT‐N‐oxide]
- AUC (mean ± sd) [1, 5]: 60.37 ± 57.60
- AUC (min—max) [1, 5]: 5.21 to 191.29 g·min/mL
- Cmax (min—max) [1, 5]: 0.00158 to 0.0406 µg/mL
- Tmax (mean ± sd) [1, 5]: 1.849 ± 0.6267 h
- Cmax (mean ± sd) [1, 9]: 0.01442 ± 0.0125 µg/mL
- Clusters between plasma concentration and beta band (healthy volunteers; beta band): No significant clusters
- Cohen's d, plasma concentration vs fast-gamma power increase (healthy volunteers; bilateral parieto-occipital electrodes): 0.0003
- Clusters between plasma concentration and delta band (healthy volunteers; delta band): not significant
- Cohen's d, plasma concentration vs fast-gamma power increase (healthy volunteers; left centro-frontal electrodes): 0.1917
- Cohen's d, plasma concentration vs slow-gamma power increase (healthy volunteers; left centro-parieto-occipital extending to right parietal electrodes): 0.0593
- Cohen's d, plasma concentration vs alpha band power decrease (healthy volunteers; left centro-parieto-occipital extending to some left frontal electrodes): 0.0610
- Cohen's d, plasma concentration vs slow-gamma power increase (healthy volunteers; right centro-temporal electrodes (C6, T8 and TP8)): 0.0052
- Cohen's d, plasma concentration vs fast-gamma power increase (healthy volunteers; right centro-temporo-frontal electrodes): 0.0269
- Cohen's d, plasma concentration vs slow-gamma power increase (healthy volunteers; right frontal electrodes): 0.0061
- Cohen's d, plasma concentration vs alpha band power decrease (healthy volunteers; right fronto-temporal electrodes (FC6, FT8 and FT10)): 0.1341

Compound: CN(C)CCc1c[nH]c2ccc(O)cc12 [5-OH-DMT, 5‐hydroxy‐DMT]
- Detection in plasma samples [1]: never detected

Compound: COc1ccc2[nH]cc(CCN(C)C)c2c1 [5-MeO-DMT, 5‐methoxy‐DMT]
- Detection in plasma samples [1]: never detected
